The target of this test is Beta-secretase 1 (Homo sapiens, UniProt P56817). In words: Inhibition of recombinant BACE1 (unknown origin) using H-Ile-Lys-Thr-Glu-Glu-Ile-Ser-Glu-Val-Asn-Leu-Asp-Ala-Glu-Phe-Arg-His-Asp-Ser-Gly-NH2 as substrate measured after 90 mins by HPLC analysis.

pIC50: −log10 of the molar value.

Beta-secretase 1, sequence (P56817 whole entry): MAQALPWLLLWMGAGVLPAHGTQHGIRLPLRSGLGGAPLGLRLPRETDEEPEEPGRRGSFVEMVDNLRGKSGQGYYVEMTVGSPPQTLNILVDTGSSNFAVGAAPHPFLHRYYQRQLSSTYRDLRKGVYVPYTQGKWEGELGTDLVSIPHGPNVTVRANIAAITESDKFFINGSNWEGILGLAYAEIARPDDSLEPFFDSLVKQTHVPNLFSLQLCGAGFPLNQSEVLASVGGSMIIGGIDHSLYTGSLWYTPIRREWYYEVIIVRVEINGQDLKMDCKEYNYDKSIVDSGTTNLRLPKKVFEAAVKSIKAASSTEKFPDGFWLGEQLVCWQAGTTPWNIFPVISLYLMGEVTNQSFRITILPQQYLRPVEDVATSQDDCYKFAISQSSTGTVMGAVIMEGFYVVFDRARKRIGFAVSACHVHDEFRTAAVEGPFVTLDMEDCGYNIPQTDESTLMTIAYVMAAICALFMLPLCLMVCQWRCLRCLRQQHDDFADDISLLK

One may read the pIC50 as the negative decadic logarithm of the IC50, by convention in mol/L. Regarding `C[C@H]1OC[C@]2(c3cc(NC(=O)c4cnc(C(F)F)cn4)ccc3F)N=C(N)SC[C@H]12` [ELENBECESTAT], the pIC50 was 7.24.

Values taken from ChEMBL document CHEMBL6114974, “Development of novel BACE1 inhibitors with a hydroxyproline-derived N-amidinopyrrolidine scaffold” (Bioorg Med Chem, 2025).
